Assay results published in patent publication US4254124A, “Antidepressant agent” (priority 1979, dated 1981).

Tests used:
alpha-adrenergic = assay: blood pressure response to 1-epinephrine (alpha-adrenergic blocking action), anesthetized dog; assay type: in vivo
[1] = U.S. Pat. No. 3,381,009; cited from earlier work
[2] = ALD50/ATD50 Mouse (lethal toxicity and first signs of pharmacologic activity); settings: mouse, in vivo, po
Source text: (§1) ^4 Groups of 10 mice treated variously with geometrically increasing
(§2) doses of test compound with observations of lethal toxicity (ALD50)
(§3) and for first signs of pharmacologic activity (ATD50).

mouse [3] = assay: reserpine-induced ptosis prevention (oral pretreatment); assay type: in vivo; settings: for ED50: Mus musculus, po, p.o. before reserpine 2.0 mg./kg. i.v., prevention in 50% of the animals
mouse [4] = assay: spontaneous motor activity; assay type: in vivo
Source text: More particularly, in the measurement of spontaneous motor activity in the mouse using the device and method described by Kissel in U.S. Pat. No. 3,100,473 patented Aug.

dog = assay: carotid arterial blood pressure in pentobarbital anesthetized dog; assay type: in vivo; settings: 1 and 10 mg./kg. intravenously
mouse [5] = assay: Inhibition of pernicious preening in mice (anti-psychotic or analgetic); assay type: in vivo; settings: oral
Source text: mice (anti-psychotic or analgetic)^3

patients = settings: cited from earlier work
mouse [6] = assay: ALD50/ATD50 Mouse (lethal toxicity and first signs of pharmacologic activity)
Source text: as §1, §2, §3

mouse [7] = assay: Mouse, tail clip (analgetic); assay type: in vivo; settings: oral
Source text: Mouse, tail clip (analgetic)^1
^1 Bianchi, et al., Brit. J. of Pharmacology 9, 280 (1954).

in vivo = settings: mouse, po
Source text: as §1, §2, §3

mouse [8] = assay: Reduction of phenylquinone writhing in mice (analgetic); assay type: in vivo; settings: oral
Source text: Reduction of phenylquinone writhing
^2 Hendershot, et al., J. Pharmacol. & Exptl. Ther. 125, 237 (1959).

[9] = animal tests, propensity for adverse reactions (general statement); assay type: in vivo; settings: central nervous system depression, hypotensive action, and others; vs trazodone
Description: More particularly, in the measurement of spontaneous motor activity in the mouse using the device and method described by Kissel in U.S. Pat. No. 3,100,473 patented Aug. […] In contrast, trazodone at a dose of 15.3 mg./kg. caused a 30% reduction in spontaneous motor activity. […] Other animal test results in which MJ 12762 has been compared to trazodone are arranged in the following table.

[10] = animal tests, antidepressant activity (general statement); assay type: in vivo
[11] = vs imipramine, Fabre et al. 1979

O=c1n(CCCN2CCN(c3cccc(Cl)c3)CC2)nc2ccccn12 [trazodone, 2-[3-[4-(3-chlorophenyl)-1-piperazinyl]propyl]-1,2,4-triazolo[4,3-a]pyridin-3(2H)-one, reference compound]
effect on the blood pressure response to 1-epinephrine bitartrate (alpha-adrenergic blocking action) (alpha-adrenergic; 10 mg./kg. intravenously): blocked the effect of 1-epinephrine bitartrate
pharmacological action in various animal tests [1]: tranquilizing action, hypotensive action, and analgesic action
TD50 [2]: 2 to 4 mg/kg
ED50 (mouse [3]): 36 mg/kg
reduction in spontaneous motor activity (mouse [4]; 15.3 mg./kg.): 30%
effect on blood pressure (dog): depressor response
ED50 (mouse [5]; Mus musculus): 43 mg/kg
adverse reactions sometimes observed in patients (patients; endogenous or neurotic depression): hypotension,fatigue, drowsiness, and nasal or sinus congestion
antidepressant effectiveness in clinical use (patients; [11]): equivalent in effectiveness to imipramine
side effects in clinical use (patients; [11]): fewer side effects

O=c1n(CCCN2CCN(c3cccc(C(F)(F)F)c3)CC2)nc2ccccn12 [MJ 12762, 2-[3-[4-[3-(Trifluoromethyl)phenyl]-1-piperazinyl]propyl]-1,2,4-triazolo[4,3-a]pyridin-3(2H)-one]
effect on the blood pressure response to 1-epinephrine (alpha-adrenergic blocking action) (alpha-adrenergic; intravenous doses of 1 and 10 mg./kg.): lack of alpha-adrenergic blocking action
TD50 [2]: 8 to 15.7 mg/kg
acute toxicity relative to trazodone (mouse [6]; mouse): somewhat greater than that of trazodone
propensity for signs of overt pharmacologic activity unrelated to utility (mouse [6]; vs trazodone): reduced as compared to trazodone
ED50 (mouse [3]): 14 mg/kg
potency relative to trazodone, reserpine ptosis (mouse [3]; p.o., vs trazodone): two to three times more potent than trazodone
effect on spontaneous motor activity (mouse [4]; 20, 40 and 80 mg. per kg. orally): neither stimulation nor depression
ED50 (mouse [7]): 94 mg/kg
LD50 (in vivo): 250 to 500 mg/kg
ED50 (mouse [8]): 6.1 mg/kg
effect on blood pressure (dog): without effect on blood pressure
inhibition of pernicious preening, activity in words (mouse [5]): Inactive
inhibition of pernicious preening, animals responding (mouse [5]; at 31 mg./kg.): 2 of 10
propensity for adverse reactions [9]: significantly reduced propensity for adverse reactions
antidepressant activity relative to trazodone [10]: comparable in antidepressant activity to trazodone
